The test system of the experiment is Plasmodium falciparum. Description: GSK_TCMDC: Inhibition of Plasmodium falciparum 3D7 in whole erythrocytes, using parasite LDH activity as an index of growth. It counts as functional, organism-based. The settings on record: Plasmodium falciparum, 3D7.
Regarding `CCN(CC)CCc1ccc2c(=O)cc(CCc3cccc(F)c3F)n(CC(=O)N(C)Cc3ccc(-c4ccc(C(F)(F)F)cc4)cc3)c2c1`, the XC50 worked out at 862 nM.
Under `CCN(CC)CCN(Cc1ccc(-c2ccc(C(F)(F)F)cc2)cc1)C(=O)Cn1c(CCc2ccc(F)c(F)c2)nc(=O)c2ccccc21` stands 1580 nM.
Under `O=C(Cn1c(SCc2cccc(F)c2F)cc(=O)c2ccccc21)N(CCN1CCCCC1)Cc1ccc(-c2ccc(C(F)(F)F)cc2)cc1` stands 664 nM.
Under `CCNc1cc(C(=O)N[C@@H](Cc2ccccc2)[C@H](O)CN[C@@H]2CCc3ccccc32)cc(N2CCCC2=O)c1` stands 1020 nM.
On to `O=C(/C=C/c1ccc(Cl)c(Cl)c1)NCCCCCCN1CCCN(C(=O)Nc2ccc(Cl)c(Cl)c2)CC1`, for which the XC50 is 666 nM.
Under `Cc1[nH]c(C)c([N+](=O)[O-])c(=O)c1-c1ccc(Oc2ccc(OC(F)(F)F)cc2)cc1` stands 247 nM; under `Cc1ccc(Nc2ccnc(Nc3ccc4c(c3)CS(=O)(=O)C4)n2)cc1O`, 725 nM.
Under `O=S(=O)(c1csc2ccccc12)N(CCC(O)(C(F)(F)F)C(F)(F)F)Cc1cccc(O)c1` stands 360 nM.
Compound `O=C(Nc1cccnc1)c1ccc(-c2cc3ccncc3cc2OC2CCNCC2)s1` displayed an XC50 of 884 nM.
In the case of `O=C1CCCN1CCCNCc1cccc(-c2ccc(-c3nc4cc(C(F)(F)F)ccc4[nH]3)s2)c1`, the XC50 came to 448 nM.
Under `COc1cc(NC(=O)N2CCOC(CCN3CCC(c4ccccc4)CC3)(c3ccc(Cl)c(Cl)c3)C2)cc(OC)c1` (stereo not drawn) stands 287 nM; under `O=C(Nc1cc(F)cc(F)c1)N1CCOC(CCN2CCC(c3ccccc3)CC2)(c2ccc(Cl)c(Cl)c2)C1` (stereo not drawn), 466 nM; under `CCc1cn2c3c(cc(C(=O)N[C@@H](Cc4cccc(Cl)c4)[C@H](O)CNC4CCOCC4)cc13)N(C)S(=O)(=O)CC2`, 44.2 nM.
Under `CN1CCN(c2ccc(Cl)cc2NC(=O)C2COc3ccccc3O2)CC1` (stereo not drawn) stands 810 nM; under `CC(=O)N1N=C(c2cccs2)Sc2c1nc(-c1ccc(Cl)cc1)n2C(C)=O`, 736 nM.
Under `CC(C)(C)c1ccc(O)c(CNC2CCCCC2)c1` stands 264 nM; under `FC(F)(F)c1ccc2[nH]c(-c3cccc(-c4cccc(CNCC5CCCO5)c4)c3)nc2c1` (stereo not drawn), 422 nM; under `O=C(OCc1ccccn1)c1nc2ccccc2[nH]1`, 793 nM.
As for `Cc1cc([N+](=O)[O-])ccc1NC(=O)Nc1cccc(C(F)(F)F)c1`, the XC50 was 721 nM.
Under `COc1cc(NC(=O)Nc2cc(C)nc3ccccc23)cc(OC)c1` stands 396 nM; under `O=C(NC(Nc1ccc([N+](=O)[O-])cc1)C(Cl)(Cl)Cl)c1cccc(Cl)c1` (stereo not drawn), 863 nM; under `CC(C)(C)c1ccc(C(=O)Nc2ccc(NC(=O)c3ccc([N+](=O)[O-])o3)cc2)cc1`, 844 nM.
Under `O=C(/C=C/c1cc(C(F)(F)F)ccc1F)NCCCCCN1CCC(c2c[nH]c3ccccc23)CC1` stands 1130 nM.
Compound `O=C(N[C@@H](Cc1ccccc1)C(=O)NC1CCCCC1)c1ccc(O)c(-c2ccc(Cl)c(Cl)c2)c1` had an XC50 of 231 nM.
Under `CC[C@H]1CN2CC[C@@H]1C[C@H]2[C@H](O)c1cc(-c2c(C)noc2C)nc2ccc(OC)cc12` stands 33 nM; under `CC(C)(CNCc1ccc(Cl)cc1)c1nc(-c2ccc(Cl)c(O)c2)c(-c2ccncc2)[nH]1`, 476 nM; under `Cc1nc2nc(N)nc(N)c2c(C)c1Cc1c(Cl)cccc1Cl`, 48.9 nM.
Under `CC(Oc1ccc(Cl)cc1Cl)c1nc(-c2ccc(NC(=O)c3ccco3)cc2)no1` (stereo not drawn) stands 905 nM.
Under `Nc1nc(O)c2cc(CN(C=O)c3ccc(C(=O)N[C@@H](CCC(=O)O)C(=O)O)cc3)ccc2n1` stands 179 nM; under `CC(Oc1ccc(Cl)cc1)C(=O)NCCC1CCN(CCCCCNC(=O)/C=C/c2ccc(Cl)c(Cl)c2)CC1` (stereo not drawn), 1020 nM.
The compound `CCN(CC)CCNC(=O)c1ccc(NC(=O)c2cc(-c3ccncc3)nc3ccccc23)cc1` gave an XC50 of 770 nM.
In the case of `CC(=O)Nc1ccc(OCCN(CC(C)C)c2ccc(C(F)(F)F)c(C#N)c2)c(Cl)c1`, the XC50 was determined as 308 nM.
Under `CCc1ccc(C2CCN(CCCCNC(=O)c3ccc(NC(=O)c4ccc(Cl)cc4)cc3)CC2)cc1` stands 646 nM; under `CCc1nc2ccc(C(=O)OC)nc2n1Cc1ccc2oc(-c3ccccc3N)c(Br)c2c1`, 822 nM; under `Cc1ccc(NC(=O)NC2CCN(CCCCCNC(=O)/C=C/c3ccc(Cl)c(Cl)c3)CC2)cc1C`, 733 nM.
Under `COc1ccccc1N1CCN(CCCCNC(=O)c2ccc(NC(=O)c3ccc(OC(F)(F)F)cc3)cc2)CC1` stands 663 nM.
Under `CC1(C)NC(N)=NC(=N)N1OCCSc1ccc(Cl)c(Cl)c1` stands 3.2 nM; under `Cc1ccc(-c2nc(N3CCN(C(=O)c4ccco4)CC3)c3ccccc3n2)cc1`, 970 nM; under `COc1ccc(CN2CCC(N3CCc4cc(NC(=O)c5cc(C)on5)ccc43)C2)cc1Cl` (stereo not drawn), 939 nM.
In turn, `CCc1cc(I)c2c(c1)C(NCCCNc1cc(=O)c3ccccc3[nH]1)CCN2` (stereo not drawn) gave an XC50 of 887 nM.
Under `O=C(NCc1cccc(F)c1)c1ccc(O)c(-c2cc(Cl)cc(Cl)c2)c1` stands 559 nM; under `COc1ccc(C2CCN(CCCCNC(=O)c3ccc(NC(=O)c4ccc(Cl)cc4)cc3)C2)c(OC)c1` (stereo not drawn), 1200 nM; under `COc1ccc(CNCCCCCNCc2ccc(Cl)c(Cl)c2)cc1Cl`, 751 nM.
Under `COc1ccc2c(OC)cccc2c1CNCCCCCCNCc1c(OC)ccc2c(OC)cccc12` stands 686 nM.
The compound `O=C(Nc1ccc(C(F)(F)F)cc1)NC1CCN(c2ccnc3cc(Cl)ccc23)C1` (stereo not drawn) registered an XC50 of 139 nM.
For `CCCCCC(C)C(C)c1cc(O)c2c(c1)OC1(C(C)C)CC(O)C(C)C2C1` (stereo not drawn), the XC50 was determined as 985 nM.
As for `COC(=O)c1ccc2[nH]cc(C3CCN(CCC4CCN(C(=O)/C=C/c5ccc(Cl)c(Cl)c5)CC4)CC3)c2c1`, the XC50 was 512 nM.
Under `COc1ccc2ccccc2c1CNCCCCCCNCc1c(OC)ccc2ccccc12` stands 712 nM; under `COC(=O)C(c1ccc(NC(=O)[C@H](CC(C)C)NC(=O)OC(C)(C)C)cc1)c1ccc(NC(=O)[C@H](CC(C)C)NC(=O)OC(C)(C)C)cc1`, 348 nM; under `Cc1ccc2[nH]c(/C=C/c3cccc4cc[nH]c34)nc2c1`, 1180 nM.
Under `CC(C)(Cc1ccc(Cl)cc1)NCCCCCCNCCc1ccc(O)c(O)c1` stands 1200 nM.
The compound `Fc1cccc2sc(Nc3nc(-c4ccccn4)cs3)nc12` had an XC50 of 906 nM.
Under `O=C(Nc1cccc(CN2CCN(Cc3ccc(O)cc3)CC2)c1)c1ccc(Cl)c(Cl)c1` stands 253 nM; under `COc1cccc(Nc2nnc(SCC(=O)NNC(=O)c3ccccn3)s2)c1`, 380 nM; under `O=C(Nc1cccc(CN2CCN(C(=O)c3ccccc3)CC2)c1)c1ccco1`, 886 nM.
Under `CCCC(=O)Nc1ccc(OCCCCN(Cc2ccccc2C(F)(F)F)c2ccc(C(F)(F)F)c(C#N)c2)cc1` stands 973 nM.
Under `CC(=O)Nc1nc(C(=O)Nc2ccc(-c3ccc(-c4nc5ccccc5[nH]4)cc3)cc2)cs1` stands 150 nM; under `CCCNC(=O)C1CCN(C(c2ccccc2)c2ccc(Cl)c(Cl)c2)CC1` (stereo not drawn), 708 nM; under `COc1ccc(NC(=O)c2cc(-c3ccc(NC(C)=O)cc3)cnc2N)cc1`, 806 nM.
Compound `CC(C)COc1ccc(C(O)C(CN2CCCCC2)c2ccccc2)cc1` (stereo not drawn) returned an XC50 of 923 nM.
Under `Cc1cc(C)c(C)c(OCCCON2C(=N)N=C(N)NC2(C)C)c1C` stands 3.2 nM; under `CCn1cc2c3c(cc(C(=O)N[C@@H](Cc4ccccc4)[C@H](O)CNC4CCOCC4)cc31)N(C)S(=O)(=O)CC2`, 208 nM.
Under `COc1cccc(CN2CCC3(CC2)CN(C(=O)Nc2ccc(Cl)c(Cl)c2)C3)c1` stands 752 nM; under `Cc1cc(Nc2ncc(Cl)c(Nc3ccccc3C(N)=O)n2)n[nH]1`, 811 nM.
Regarding `O=C(/C=C/c1ccc(Cl)c(Cl)c1)NCCCCCN1CCC(NC(=O)Nc2ccccc2Cl)CC1`, the XC50 came out at 714 nM.
On to `O=C(/C=C/c1ccc(Cl)c(Cl)c1)NCCCCCCN1CCCN(C(=O)Nc2ccc(F)c(Cl)c2)CC1`, for which the XC50 was found to be 738 nM.
Under `C=CCOC(=O)O[C@@H]1[C@@H](OC(=O)OCC=C)[C@@H](OC)O[C@H](COC(c2ccccc2)(c2ccccc2)c2ccccc2)[C@H]1OC(=O)OCC=C` stands 887 nM.
`CCN(Cc1ccccc1)C1CCN(Cc2cc(Br)ccc2O)CC1` showed an XC50 of 823 nM.
Under `CC(C)(CNC(=O)C1CCN(CCOc2ccc(Cl)cc2)CC1)c1nc(-c2ccc(Cl)c(O)c2)c(-c2ccncc2)[nH]1` stands 709 nM; under `COc1ccc(Cc2nc(/N=C(\N)Nc3ccccc3)ccc2OC)cc1`, 852 nM.
Under `Nc1nc(N)c2cc(C#Cc3ccc(-c4ccccc4)cc3)ccc2n1` stands 810 nM.
Under `COCCSc1ccc(CC(C)NCC(O)c2cccc(Cl)c2)cc1` (stereo not drawn) stands 758 nM; under `COc1cccc(C(=O)N2CCN(Cc3cccc(NC(=O)c4cccs4)c3)CC2)c1`, 483 nM.
Take `c1ccc(-c2cc(NCCCn3ccnc3)nc(-c3cccnc3)n2)cc1`: the XC50 stood at 977 nM.
Under `NC(=O)CN1CC=C(c2c[nH]c3ccc(Br)cc23)CC1` stands 1100 nM; under `O=C(/C=C/c1ccc(Cl)c(Cl)c1)NCCCCCN1CCC(NC(=O)Nc2ccccc2F)CC1`, 839 nM.
Under `Cc1cccc2nc(-c3cccc(-c4ccc(NC(=O)c5cccc(C(N)=O)c5)cc4)c3)[nH]c12` stands 410 nM; under `COc1ccc2nccc([C@@H](O)CN3CCC(NCc4ccc5c(n4)NC(=O)CS5)C(F)C3)c2c1` (stereo partly drawn), 912 nM; under `Cc1c(Cl)ccc2sc(N3CCN(C(=O)c4ccc([N+](=O)[O-])o4)CC3)nc12`, 745 nM.
Under `Cc1ccc(Cl)cc1NC(=O)c1c(-c2ccccc2Cl)noc1C` stands 192 nM; under `O=C(c1ccc(-c2ccc(-c3nc4cc(C(F)(F)F)ccc4[nH]3)s2)cc1)N1CCCCC1CN1CCC(O)C1` (stereo not drawn), 560 nM; under `CCc1ccccc1N1CCN(CCCC(=O)c2ccc(NC(=O)c3cc(Cl)cc(Cl)c3)cc2)CC1`, 290 nM.
Regarding `O=C(/C=C/c1ccc(Cl)c(Cl)c1)NCCCCCN1CCC(c2n[nH]c(-c3ccccc3)c2Br)CC1`, the XC50 was found to be 723 nM.

The values above are taken from ChEMBL document CHEMBL1157539, “Thousands of chemical starting points for antimalarial lead identification” (Nature, 2010).
